{
  "source": "patent US20190022253A1",
  "about": "“UNIT DOSAGE OF APADENOSON” (University of Virginia Patent Foundation, priority 2008, published 2019)",
  "key": {"patients [1]": {"test_system": "patients", "test": "Phase II study: coronary blood flow velocity monitored with a flow wire", "type": "in vivo, human", "description": "that can be used in clinical perfusion imaging techniques (e.g., for diagnosing and assessing the extent of coronary artery disease) in U.S. Pat. No. 6,322,771. This agent has since been taken into Phase I and II clinical trials. In 2005, Dr. […] et al reported to the American Heart Association on the preliminary results of 127 patient SPECT Tc^99m sestamibi imaging studying comparing adenosine with Apadenoson using either 1 μg/kg or 2 μg/kg intravenous boluses of Apadenoson. […] In 2006, Dr. Kern et al reported to the American Heart Association the results of a Phase II study of Apadenoson, one goal of which was to determine an appropriate dose for Phase III clinical trials. Intravenous bolus dosages of 0.5, 1.0, 2.0, and 2.5 μg/kg were studied. […] In this Phase II study in 100 patients, conducted by Dr. Morton Kern, an independent investigator at UC Irvine, […] was administered by intracoronary injection, and coronary blood flow velocity was monitored with a flow wire. […] The previously reported increase in coronary blood flow velocity (CBFV) corresponding to an increase in dose of Apadenoson from 0.5 to 2 μg/kg was based on the increase in CBFV in a limited number of patients (see FIG. 1)."}, "patients [2]": {"test_system": "patients", "settings": "intravenous bolus, dosage from 0.5 to 2 μg/kg; limited number of patients (FIG. 1); Kern et al 2006; cited from earlier work"}},
  "data": [
    {"molecule": "CCNC(=O)[C@H]1O[C@@H](n2cnc3c(N)nc(C#CC[C@H]4CC[C@H](C(=O)OC)CC4)nc32)[C@H](O)[C@@H]1O", "note": "[Apadenoson]", "values": [
      {"measurement": "dose response curve", "setting": "patients [1]; 1 μg/kg or 2 μg/kg administered", "value": "no dose response curve is seen"},
      {"measurement": "dose response of coronary blood flow velocity (CBFV)", "setting": "patients [1]; entire sample of patients (FIG. 2, 33 patients), dose ≥1 μg/kg, in particular between 1 and 2.5 μg/kg", "value": "no dose response is seen"},
      {"measurement": "peak flow compared with adenosine", "setting": "patients [1]; increasing bolus doses, one patient (FIG. 1)", "value": "achieved peak flow equivalent to adenosine"},
      {"measurement": "average peak velocity for coronary blood flow versus dose", "setting": "patients [2]", "value": "increase with a corresponding increase in dosage"}
    ]},
    {"molecule": "Nc1ncnc2c1ncn2[C@@H]1O[C@H](CO)[C@@H](O)[C@H]1O", "note": "[adenosine, reference compound]", "values": [
      {"measurement": "coronary blood flow velocity", "setting": "patients [1]; three intracoronary injections, one patient (FIG. 1)", "value": "increased blood flow velocity"}
    ]}
  ]
}
